Patent publication US20040121474A1, “Detection and evaluation of chemically-mediated and ligand-mediated t-cell activation using optophoretic analysis” (Genoptix, Inc, priority 2002, published 2004)
Counter-ions that a name gives are not always drawn. Like-named read-outs stand apart in the source and are kept apart here.

Legend:
U937 cells [1] = experiment: Escape velocity, PMA inhibition by bisindolymaleimide; format: cell-based; conditions: for Escape velocity Ave.: four hours
From the text: The objective of this experiment was to test the effect of bisindolymaleimide on cells exposed to PMA. Bisindolymaleimide is a Protein Kinase C inhibitor and should block the effect of PMA on U937 cells and their escape velocities. As shown in this and prior experiments, exposure of U937 cells to PMA results in an increase in the escape velocity of the cells. Therefore, it is anticipated that addition of bisindolymaleimide will reduce or eliminate the increase in escape velocity caused by PMA. This has in fact been observed in the data shown below.
Bisindolymaleimide was tested at two concentrations: 200 ng/ml and 50 ng/ml. Samples not treated with bisindolymaleimide received an equivalent amount of the carrier, MeOH, as a control. […] The concentration of PMA tested was 10 ng/ml. Samples not receiving PMA received DMSO.
Once the flasks were prepared, they were incubated at 37° C. 5% CO2 for four hours. At the four hour timepoint, 300 μl of cells were removed from each flask and pelleted at 5000 rpm for 5 minutes. The cells were then resuspended in 6 ml PBS/1% BSA and 60 μl trypan blue.

HL-60 cells = experiment: Fast scan analysis, differentiation of HL-60 cells; format: cell-based; conditions: 1% DMSO
Protocol: (§1) Fast scan analysis was also performed on HL-60 cells that were treated with PMA and DMSO. A time course evaluation of PMA treated HL-60 cells was performed with fast scan data taken at 16 hours, 24 hours, 40 hours, and 72 hours post-treatment with 400 ng/ml PMA. A control sample of HL-60 cells was also tested using EtOH as the vehicle for purposes of comparing the differentiated cells with the undifferentiated HL-60 cells. The PMA-treated and control cells were harvested and trypsinized. The samples were then resuspended in PBS/1% BSA. A set of samples was also obtained and left as pellets at 4° C. for subsequent FACS analysis.
A time course evaluation of DMSO treated HL-60 cells was performed with fast scan data taken at 16 hours, 24 hours, 40 hours, and 70 hours post-treatment with 1% DMSO. A control sample of HL-60 cells was also tested for purposes of comparing the differentiated cells with the undifferentiated HL-60 cells. The DMSO-treated and control cells were then harvested and resuspended in PBS/1% BSA. A set of samples was also obtained and left as pellets at 4° C. for subsequent FACS analysis.

[2] = test system: CD11b expression in HL-60 cells; experiment: FACS CD11b expression profile; format: cell-based; conditions: 1% DMSO
Protocol: as §1
FIG. 145 illustrates a histogram of the travel distance of the control cells as well as the PMA-treated cells at 16 hours, 24 hours, 40 hours, and 72 hours post-treatment. FIG. 146 illustrates the mean travel distances of the control cells as well as the PMA-treated cells at 16 hours, 24 hours, 40 hours, and 72 hours post-treatment. FIG. 147 illustrates the FACS CD11b expression profile in PMA-treated HL-60 cells as well as the control. CD11b is a known marker of cellular differentiation and is expressed on the surface of differentiating cells. […] The data illustrate that Optophoretic analysis can be used as an assay for the detection and quantification of cellular differentiation. […]

[3] = test system: wild type Staphylococcus aureus; experiment: Bacterial screen for drug sensitivity, escape velocity; format: cell-based; conditions: 5 μg/ml Erythromycin
Protocol: (§2) In this experiment, escape velocity was measured over time in wild type Staphylococcus aureus and an Erythromycin-resistant strain. 5 μg/ml of Erythromycin was applied to both the wild type Staphylococcus aureus and an Erythromycin-resistant strain. Escape velocity measurements were taken at time zero, 30 minutes post-treatment, and 3 hours post-treatment. […] In this experiment, however, escape velocity measurements were made at time zero, 30 minutes post-treatment, and 1 hour post-treatment, and 2 hours post-treatment. A reduction in escape velocity of the Erythromycin-sensitive strain can be seen at 1 hour post-treatment.

[4] = test system: Erythromycin-resistant strain; experiment: as above; format: cell-based, Staphylococcus aureus; conditions: 5 μg/ml Erythromycin
Protocol: as §2

[5] = test system: K-562, BV-173, EM-3, and U-937 cell lines; experiment: Fast scan analysis, effect of Gleevec; format: cell-based; conditions: 1 μM Gleevec, 48 hours, U-937 cells excepted
From the text: (§3) FIGS. 30A and 30B show optical interrogation of a group of cells 610 using a fast scan analysis. In this method, a moving optical gradient 612 (laser beam) in the form of a line is moved relative to the cells 610. […] Instead, an image can be taken of the cells 610 prior to the scan to determine the starting position of each cell 610. […] The distances traveled can be obtained by images taken of the cells 610 before and after the scanning process. The optical gradient 612 is moved at a speed that is higher than the escape velocity of all the cells 610 within the group. In this manner, all of the cells 610 are left behind the moving optical gradient 612. In an alternate fast scan embodiment, the cells 610 are initially lined up at a starting position A. After aligning the cells 610, the optical gradient 612 is rapidly moved and their distance of travel is measured by optical imaging. It should be understood that fast scan analysis may include multiple scans or “sweeps” of the cells 610. Generally, it has been observed that multiple scans produce larger cell movements.

[6] = test system: K562, BV-173, EM-3, and U-937 cells; experiment: Escape velocity, effect of Gleevec; format: cell-based; conditions: 72 hours after exposure, all four cell types
From the text: The U-937 cells have no copies of the gene. The K-562 line of cells has, on average, one copy of the gene per cell. The BV-173 line of cells has, on average, three copies of the gene per cell. The EM-3 cell line has, on average, five copies of the gene per cell. […] FIG. 44 illustrates the measured escape velocities (average) for each of the four cell types. […] In addition, the decrease in escape velocity for the Gleevec-treated cells was more pronounced in those cell lines that had higher copy numbers of the Bcr-Abl gene.

Jurkat cells = experiment: Escape velocity, TNF-α effect on Jurkat cells; format: cell-based; conditions: TNF inhibitor added with TNF
Protocol: After 48 hours of incubation, the cells were removed and centrifuged for 5 minutes at 5,000 rpm. Then the cells were resuspended in PBS/1% BSA and trypan blue. A higher power setting, 140 mW instead of 100 mW, was used for this experiment. The escape velocities were measured as follows:
In this experiment Leflunomide and Silymarin were added with TNF to see if the anticipated increase in escape velocity measurements could be counteracted by the presence of the TNF inhibitors.

U937 cells [7] = test system: U937 cells
Protocol: This experiment is designed to compare the effects of two concentrations of sodium salicylate on U937 cells. Sodium salicylate was prepared at two concentrations: 20 mM and 5 mM. The escape velocities of the cells was tested at 5 hours, 24 hours and 47 hours. At each timepoint, 30 μl of sample was pelleted at 5,000 rpm for 5 minutes and then resuspended in PBS/1% BSA and trypan blue.

Chang liver cells [8] = format: cell-based; conditions: human, 1 μm
From the text: as §3
This experiment is designed to test the effect of ketoconazole on human liver cells. Ketoconazole induces toxicity in liver cells. The sample cells were Chang liver cells. The concentration of ketoconazole used to treat the cells was 1 μm. […]

Chang liver cells [9] = experiment: Escape velocity, toxicity of ketoconazole to liver cells; format: cell-based, human; conditions: 1 μm of ketoconazole, 1.5 hours of treatment
Protocol: This experiment is designed to test the effect of ketoconazole on human liver cells. Ketoconazole induces toxicity in liver cells. The sample cells were Chang liver cells. The concentration of ketoconazole used to treat the cells was 1 μm. Escape velocity and fast scan protocols were applied to determine the impact, if any, of ketoconazole treatment. […] Consequently, Optophoresis was able to detect an effect on the escape velocity of treated cells within 1.5 hours of exposure to ketoconazole. FIGS. 44-45 show the fast scan results of ketoconazole-treated Chang liver cells. […] The ketoconazole-treated cells generally traveled a smaller distance as compared to the non-treated control.

CEM/C2 = CEM/C2 cell line obtained from ATCC; cited from earlier work
CCRF-CEM = experiment: Escape velocity, topotecan on sensitive cell line; format: cell-based; conditions: 10 μM topotecan, 6 hours
Protocol: In a fifth experiment, two different cell lines obtained from ATCC which have varying degrees of sensitivity to topoisomerase I inhibitors such as camptothecin and topotecan were subject to Optophoretic analysis. A group of cells from a parental cell line CCRF-CEM that is sensitive to camptothecin and topotecan were incubated for 6 hours with 10 μM topotecan. Another group of cells from the cell line CEM/C2, which are 970-fold less sensitive to camptothecin and topotecan, were also incubated for 6 hours with 10 μM topotecan. Control cells from both the CCRF-CEM and CEM/C2 cell lines were also tested. […] Escape velocity measurements were then taken using a 100 mW laser with a diameter of 28 pixels. […] Optophoretic analysis was thus able to score cross-resistance of camptothecin-resistant cell lines to topotecan, an analog of camptothecin.

U937 cells [10] = experiment: Escape velocity, characterization of topoisomerase inhibitors

## CN(C)CCCn1cc(C2=C(c3c[nH]c4ccccc34)C(=O)NC2=O)c2ccccc21 [Bisindolymalemide, Bisindolymaleimide]
U937 cells [1]; 50 ng/ml bisindolymaleimide + 10 ng/ml PMA
  Escape velocity Ave.: 15.1 μm/sec
U937 cells [1]; 50 ng/ml bisindolymaleimide, no PMA
  Escape velocity Ave.: 13.9 μm/sec
U937 cells [1]; 200 ng/ml BIMI for 30 minutes, then 10 ng/ml PMA
  effect on PMA-caused shift in escape velocity (FIG. 33): blocked the optophoretic shift in escape velocity
U937 cells [1]; 200 ng/ml bisindolymaleimide + 10 ng/ml PMA
  Escape velocity Ave.: 14.5 μm/sec
U937 cells [1]; 200 ng/ml bisindolymaleimide, no PMA
  Escape velocity Ave.: 14.0 μm/sec

## C[S+](C)[O-] [DMSO, dimethylsulfoxide]
HL-60 cells
  time after treatment at which a noticeable decrease of the mean travel distance was detected: ≤ 16 h
[2]
  time after treatment at which a change in CD11b expression levels was detected: 40 h

## CC[C@H]1OC(=O)[C@H](C)[C@@H](O[C@H]2C[C@@](C)(OC)[C@@H](O)[C@H](C)O2)[C@H](C)[C@@H](O[C@@H]2O[C@H](C)C[C@H](N(C)C)[C@H]2O)[C@](C)(O)C[C@@H](C)C(=O)[C@H](C)[C@@H](O)[C@]1(C)O [Erythromycin]
[3]
  time post-treatment at which a reduction in escape velocity can be seen (FIG. 81): 1 h
[3]; time zero, 30 minutes, 3 hours
  change of escape velocity over time (FIG. 80): decreases
[4]
  escape velocity (FIG. 80): same escape velocity as the untreated Erythromycin-sensitive strain

## Cc1ccc(NC(=O)c2ccc(CN3CCN(C)CC3)cc2)cc1Nc1nccc(-c2cccnc2)n1 [Gleevec, imatinib mesylate]
[5]
  mean travel distances as compared to non-treated controls (FIG. 41): lower mean travel distances
[6]
  escape velocity as compared to non-treated cells (FIG. 40): significantly lower escape velocity

## Cc1oncc1C(=O)Nc1ccc(C(F)(F)F)cc1 [Leflunomide]
Jurkat cells
  effect on TNF-caused increase in escape velocity (FIG. 36): mitigate the increase in escape velocity caused by TNF

## O=C([O-])c1ccccc1O.[Na+] [Sodium Salicylate, Sodium salicylate]
U937 cells [7]; 5 mM and 20 mM, 5 and 24 hours
  shift in escape velocities (FIG. 37): slight but statistically significant shift in escape velocities
U937 cells [7]; 5 mM, 5 hours
  Escape velocity Ave.: 14.1
U937 cells [7]; 5 mM, 24 hours
  Escape velocity Ave.: 15.2
U937 cells [7]; 5 mM, 47 hours
  Escape velocity Ave.: 13.7
U937 cells [7]; 20 mM, 5 hours
  Escape velocity Ave.: 13.3
U937 cells [7]; 20 mM, 24 hours
  Escape velocity Ave.: 16.0
U937 cells [7]; 20 mM, 47 hours
  cell viability (trypan blue): all cells were dead

## CC(=O)N1CCN(c2ccc(OCC3COC(Cn4ccnc4)(c4ccc(Cl)cc4Cl)O3)cc2)CC1 (stereo not shown) [ketoconazole]
Chang liver cells [8]
  mean travel distance: 20.97 μm
Chang liver cells [9]
  escape velocity vs control (FIG. 46): marked decrease in escape velocity

## CC[C@@]1(O)C(=O)OCc2c1cc1n(c2=O)Cc2cc3c(CN(C)C)c(O)ccc3nc2-1 [topotecan]
CEM/C2
  less sensitive than parental cell line CCRF-CEM: 970 fold
CCRF-CEM
  decrease in escape velocity as compared to the CEM/C2 cells (FIG. 67): larger decrease in escape velocity
U937 cells [10]; 4 μg/ml, four hours
  shift in escape velocity as compared to the camptothecin-treated cells (FIG. 54): larger shift in escape velocity
U937 cells [10]; 10 μM and 20 μM topotecan, six hours
  cellular debris: a significant amount of cellular debris was present
U937 cells [10]; 10 μM topotecan, 24 hour
  cell death: virtually all of the treated U937 cells were dead
U937 cells [10]; 2.5, 5 and 10 μM topotecan, 4 hour
  dead or necrotic cells: not a significant number of dead or necrotic cells
